Data reported in patent US20100076011A1, “Enantiomer-Pure Hexahydro-Pyrrolocyclopenta-Pyridine Derivatives” (priority 2004, published 2010).
Where a name gives a salt, the structure may show the parent alone.

system: not given; test: not given; conditions: not given

SMILES	melting point [°C]
c1cc2c(cn1)[C@H]1NCC[C@H]1C2 (as salt: hydrochloride) [Example 6, (−)-[3aR-(3aα,8bα)]-1,2,3,3a,4,8b-Hexahydropyrrolo[3′,2′:4,5]-cyclopenta[1,2-c]pyridinodihydrochloride]	94 to 95
c1cnc2c(c1)C1NCCC1C2 (single isomer, unassigned; (-)) (as salt: hydrochloride) [Example 2, (−)-[3aα,8bα]-1,2,3,3a,4,8b-Hexahydropyrrolo-[2′,3′:3,4]cyclopenta[1,2-b]pyridine-dihydrochloride]	95 to 97

target: T1, α4β2-subtype (central nicotine receptor) (Rattus norvegicus, UniProt P09483+P12390); test: Radioligand assay: [3H] cytisin binding to the α4β2-subtype in rat brain membranes; conditions: not given
T1 construct: Membrane-enriched fractions of rat brain without cerebellum; tissue ABS Inc. Wilmington, Del; host or cells: rat brain without cerebellum, membrane-enriched fractions
Method: (2 samples each). The non-specific binding was determined with 10 μM (−)nicotine. The incubation was […] by vacuum filtration through a Whatman GF/C filter which previously had been humidified with 0.5% polyethylene imine. Bound radioactivity was collected on Millipore Multiscreen plates FB with a Packard Cell Harvester, and determined with a Packard Topcount Microplate Beta Counter. IC50 values were determined by non-linear regression, and from this the Ki values by means of the Cheng-Prusoff equation, wherein Ki=IC50/1+[ligand]/KID. The mean Ki values were obtained from at least three individual determinations.

T1 sequence (P09483 31-630): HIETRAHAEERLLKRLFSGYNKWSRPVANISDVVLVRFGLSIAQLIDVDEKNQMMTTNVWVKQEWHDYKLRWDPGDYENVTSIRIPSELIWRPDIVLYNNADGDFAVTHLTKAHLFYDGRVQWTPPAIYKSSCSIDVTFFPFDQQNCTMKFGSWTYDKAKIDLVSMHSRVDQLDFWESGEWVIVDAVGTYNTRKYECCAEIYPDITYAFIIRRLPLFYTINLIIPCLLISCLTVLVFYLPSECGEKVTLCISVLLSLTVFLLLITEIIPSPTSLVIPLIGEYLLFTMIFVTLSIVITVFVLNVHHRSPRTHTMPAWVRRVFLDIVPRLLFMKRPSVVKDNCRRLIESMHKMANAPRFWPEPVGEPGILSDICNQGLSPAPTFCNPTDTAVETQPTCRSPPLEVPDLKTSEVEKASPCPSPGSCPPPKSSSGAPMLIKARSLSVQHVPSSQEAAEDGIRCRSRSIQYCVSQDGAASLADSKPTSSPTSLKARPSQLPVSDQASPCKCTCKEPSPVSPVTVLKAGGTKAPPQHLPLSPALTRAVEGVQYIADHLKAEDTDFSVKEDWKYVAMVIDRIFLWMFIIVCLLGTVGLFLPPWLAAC
T1 sequence (P12390 25-500): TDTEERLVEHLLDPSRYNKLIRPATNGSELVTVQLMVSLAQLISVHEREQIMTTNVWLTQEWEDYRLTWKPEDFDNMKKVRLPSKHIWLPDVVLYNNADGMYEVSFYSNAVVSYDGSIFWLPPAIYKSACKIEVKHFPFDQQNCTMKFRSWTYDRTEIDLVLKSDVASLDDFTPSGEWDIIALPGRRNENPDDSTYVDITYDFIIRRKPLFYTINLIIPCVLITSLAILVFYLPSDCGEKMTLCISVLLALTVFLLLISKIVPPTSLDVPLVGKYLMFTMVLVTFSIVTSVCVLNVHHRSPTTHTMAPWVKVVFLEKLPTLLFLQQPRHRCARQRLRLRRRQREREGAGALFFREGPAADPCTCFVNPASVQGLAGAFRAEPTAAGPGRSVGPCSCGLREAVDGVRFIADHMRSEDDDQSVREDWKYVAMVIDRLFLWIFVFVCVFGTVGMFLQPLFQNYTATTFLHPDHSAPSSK

SMILES	Ki [µM]
c1cnc2c(c1)C1NCCC1C2 (single isomer, unassigned; (-)) [Example 2, (−)-[3aα,8bα]-1,2,3,3a,4,8b-Hexahydropyrrolo-[2′,3′:3,4]cyclopenta[1,2-b]pyridine-dihydrochloride]	> 1000
c1cnc2c(c1)C1NCCC1C2 (single isomer, unassigned; (+)) [Example 1, (+)-[3aα,8bα]-1,2,3,3a,4,8b-Hexahydropyrrolo-[2′,3′:3,4]cyclopenta[1,2-b]pyridine-dihydrochloride]	2.43
CN1CCC2Cc3ncccc3C21 (single isomer, unassigned; (-)) [Example 3, (−)-[3aα,8bα]-1,2,3,3a,4,8b-Hexahydro-1-methyl-pyrrolo[2′,3′:3,4]cyclopenta[1,2-b]pyridine-dihydrochloride]	0.199
CN1CC[C@@H]2Cc3ccncc3[C@@H]21 [Example 7, (+)-[3aS-(3aα,8bα)]-1,2,3,3a,4,8b-Hexahydro-1-methyl-pyrrolo[3′,2′:4,5]-cyclopenta[1,2-c]pyridinodihydrochloride]	1.67
CN1CC[C@H]2Cc3ccncc3[C@H]21 [Example 8, (−)-[3aR-(3aα,8bα)]-1,2,3,3a,4,8b-Hexahydro-1-methylpyrrolo[3′,2′:4,5]cyclopenta[1,2-c]pyridinodihydrochloride]	0.027
CN1CCC2Cc3ncccc3C21 (single isomer, unassigned; (+)) [Example 4, (+)-[3aα,8bα]-1,2,3,3a,4,8b-Hexahydro-1-methyl-pyrrolo[2′,3′:3,4]cyclopenta[1,2-b]pyridinedihydrochloride]	> 1000
c1cc2c(cn1)[C@H]1NCC[C@H]1C2 [Example 6, (−)-[3aR-(3aα,8bα)]-1,2,3,3a,4,8b-Hexahydropyrrolo[3′,2′:4,5]-cyclopenta[1,2-c]pyridinodihydrochloride]	0.0152

same assay, conditions: [3H] cytisin 0.75 nM, rat brain membranes without cerebellum, 75 min at 4° C.; mean of at least three determinations; Ki from IC50 by Cheng-Prusoff; read-out: Ki Values of the Enantiomer Pairs

SMILES	Ki [µM]
c1cc2c(cn1)[C@@H]1NCC[C@@H]1C2 [Example 5, (+)-(3aS-(3aα,8bα)]-1,2,3,3a,4,8b-Hexahydropyrrolo[3′,2′:4,5]-cyclopenta[1,2-c]-pyridinodihydrochloride]	1.11
